{"source": "patent US11571480B2", "about": "“Multi-ligand drug conjugates and uses thereof” (priority 2015, dated 2023)", "key": {"Transplanted H460 tumor": {"system": "Transplanted H460 tumor", "assay": "Inhibitory assay of conjugate LDC13B against xenograf tumors", "assay_type": "in vivo, nude mice", "settings": "for Body weight of mice / Tumor size: H460 tumor", "description": "(§1) Animal: nude mice, aged 6-8 weeks, female\n1) human large cell lung cancer cell H460 were incubated at 37° C., 5% CO2 in IMDM medium containing 10% fetal bovine serum, the cells were passaged every 2-3 days.\n2) generation of tumors: 7×10^6 tumor cells were injected subcutaneously into the back of nude mice, and the mice were grouped for treatment after the tumor sizes were as large as about 200 mm^3.\n3) treatment: 3 mice/group, treated with LDC13B as well as controls MMAE and PBS with doses of 2.5 and 5 mg/kg every 3 days, four injections.\n(§2) 4) the physical performance, body weights and tumor sizes of the animals were monitored. The number of animal death was recorded during the experiment."}, "[1]": {"system": "human nasopharyngeal cancer cell line KB", "assay": "Cytotoxicity test of conjugate LDC13B", "assay_type": "cell-based", "description": "(§3) Culture medium: RPMI 1640 Medium, no folic acid\n1) human nasopharyngeal cancer cell line KB, human colon carcinoma HCT-116, human prostatic cancer cell PC-3, human gastric cancer cell line GTL-16, human endometrial cancer cell HEC-1A, and human gastric cancer cell N87 were incubated at 37° C., 5% CO2 in RPMI 1640 medium containing 10% fetal bovine serum, the cells were passaged every 2-3 days.\n2) human nasopharyngeal cancer cell line KB, human colon carcinoma HCT-116, human prostatic cancer cell PC-3, human gastric cancer cell line GTL-16, human endometrial cancer cell HEC-1A, and human gastric cancer cell N87 were plated at 1×10^3 cells per well (96-well plate) and incubated for 8-12 h at 37° C., 5% CO2.\n(§4) 3) Stock solutions of LDC conjugates or control were prepared in PBS solution. 100 μL/well of serially diluted LDC conjugates or control was added to the cells in the plate and incubated for 15-30 min at 37° C., 5% CO2. The culture medium in the wells was then removed by aspiration and the cells were incubated in fresh culture medium without conjugates (150 μL/well) for 2-3 days at 37° C., 5% CO2.\n(§5) 4) CellTiter 96® Aqueous One Solution Cell Proliferation Assay (Promega) was added to each well to measure the amount of […] cells, and the plate was incubated in an incubator for 1 h at 37° C., 5% CO2.\n(§6) 5) the plate was read at 490 nm on a microplate reader, and the cell survivals were compared for cells with or without the treatment of LDC conjugates. The LDC drug concentrations that are required for 50% cell death (IC50 values) were determined."}, "[2]": {"system": "Transplanted HCC1954 tumor", "assay": "Inhibitory assay of conjugate LDC1013 against xenograf tumors", "assay_type": "in vivo, nude mice", "settings": "for Body weight of mice / Tumor size: HCC1954 tumor", "description": "as §1\n1) Human breast cancer cells HCC1954 were incubated at 37° C., 5% CO2 in IMDM medium containing 10% fetal bovine serum, the cells were passaged every 2-3 days.\n2) generation of tumors: 7×10^6 tumor cells were injected subcutaneously into the back of nude mice, and the mice were grouped for treatment after the tumor sizes were as large as about 180-320 mm^3. […]\nas §2"}, "melanoma cell line A375": {"system": "melanoma cell line A375", "assay": "Cytotoxicity test of conjugate LDC1013", "assay_type": "cell-based", "description": "as §3\n1) human nasopharyngeal cancer cell line KB, melanoma cell line A375, and human lung cancer cell H460 were incubated at 37° C., 5% CO2 in RPMI 1640 medium containing 10% fetal bovine serum, the cells were passaged every 2-3 days.\n2) human nasopharyngeal cancer cell line KB, melanoma cell line A375, and human lung cancer cell H460 were plated at 1×10^3 cells per well (96-well plate) and incubated for 8-12 h at 37° C., 5% CO2.\nas §4, §5, §6"}, "[3]": {"settings": "2.5 mg/kg, 3 days after Injection 1"}, "[4]": {"settings": "2.5 mg/kg, 3 days after Injection 2"}, "[5]": {"settings": "2.5 mg/kg, 3 days after Injection 3"}, "[6]": {"settings": "2.5 mg/kg, 3 days after Injection 4"}, "[7]": {"settings": "5 mg/kg, 3 days after Injection 1"}, "[8]": {"settings": "5 mg/kg, 3 days after Injection 2"}, "[9]": {"settings": "5 mg/kg, 3 days after Injection 3"}, "[10]": {"settings": "5 mg/kg, 3 days after Injection 4"}, "[11]": {"settings": "2.5 mg/kg, 4 days after Injection 5"}, "[12]": {"settings": "2.5 mg/kg, 5 days after Injection 6"}, "[13]": {"settings": "2.5 mg/kg, 6 days after Injection 7"}, "[14]": {"settings": "5 mg/kg, 4 days after Injection 5"}, "[15]": {"settings": "5 mg/kg, 5 days after Injection 6"}}}
{"smiles": "CC[C@H](C)[C@@H]([C@@H](CC(=O)N1CCC[C@H]1[C@H](OC)[C@@H](C)C(=O)N[C@H](C)[C@@H](O)c1ccccc1)OC)N(C)C(=O)[C@@H](NC(=O)[C@H](C(C)C)N(C)C(=O)OCc1ccc(NC(=O)[C@H](CCCNC(N)=O)NC(=O)[C@@H](NC(=O)CCCCCN2C(=O)CC(SC[C@H](NC(=O)CC[C@H](NC(=O)c3ccc(NCc4cnc5[nH]c(N)nc(=O)c5n4)cc3)C(=O)O)C(=O)NCCCC[C@@H](NC(=O)[C@H](Cc3ccc(O)cc3)NC(=O)[C@H](CO)NC(=O)[C@H](Cc3c[nH]c4ccccc34)NC(=O)[C@H](Cc3c[nH]cn3)NC(=O)[C@@H]3CCC(=O)N3)C(=O)N[C@@H](CC(C)C)C(=O)N[C@@H](CCCNC(=N)N)C(=O)N3CCC[C@H]3C(=O)NCC(N)=O)C2=O)C(C)C)cc1)C(C)C", "note": "(some centres unmarked) [LDC13B]", "values": [{"measurement": "tumor response (in words)", "setting": "Transplanted H460 tumor; H460, 2.5 mg/kg dose", "value": "shrank rapidly"}, {"measurement": "tumor response (in words)", "setting": "Transplanted H460 tumor; H460, after four injections at 5 mg/kg", "value": "completely disappeared"}, {"measurement": "Body weight of mice", "setting": "Transplanted H460 tumor; [3]", "value": 22.73, "unit": "g"}, {"measurement": "Tumor size", "setting": "Transplanted H460 tumor; [3]", "value": 384, "unit": "mm^3"}, {"measurement": "Body weight of mice", "setting": "Transplanted H460 tumor; [4]", "value": 22.65, "unit": "g"}, {"measurement": "Tumor size", "setting": "Transplanted H460 tumor; [4]", "value": 384, "unit": "mm^3"}, {"measurement": "Body weight of mice", "setting": "Transplanted H460 tumor; [5]", "value": 22.47, "unit": "g"}, {"measurement": "Tumor size", "setting": "Transplanted H460 tumor; [5]", "value": 144, "unit": "mm^3"}, {"measurement": "Body weight of mice", "setting": "Transplanted H460 tumor; [6]", "value": 21.76, "unit": "g"}, {"measurement": "Tumor size", "setting": "Transplanted H460 tumor; [6]", "value": 144, "unit": "mm^3"}, {"measurement": "Body weight of mice", "setting": "Transplanted H460 tumor; 2.5 mg/kg, Before Injection", "value": 22.7, "unit": "g"}, {"measurement": "Tumor size", "setting": "Transplanted H460 tumor; 2.5 mg/kg, Before Injection", "value": 294, "unit": "mm^3"}, {"measurement": "Body weight of mice", "setting": "Transplanted H460 tumor; [7]", "value": 18.36, "unit": "g"}, {"measurement": "Tumor size", "setting": "Transplanted H460 tumor; [7]", "value": 144, "unit": "mm^3"}, {"measurement": "Body weight of mice", "setting": "Transplanted H460 tumor; [8]", "value": 19.65, "unit": "g"}, {"measurement": "Tumor size", "setting": "Transplanted H460 tumor; [8]", "value": 40, "unit": "mm^3"}, {"measurement": "Body weight of mice", "setting": "Transplanted H460 tumor; [9]", "value": 18.21, "unit": "g"}, {"measurement": "Tumor size", "setting": "Transplanted H460 tumor; [9]", "value": 18, "unit": "mm^3"}, {"measurement": "Body weight of mice", "setting": "Transplanted H460 tumor; [10]", "value": 18.22, "unit": "g"}, {"measurement": "Tumor size", "setting": "Transplanted H460 tumor; [10]", "value": 13.5, "unit": "mm^3"}, {"measurement": "Body weight of mice", "setting": "Transplanted H460 tumor; 5 mg/kg, Before Injection", "value": 20.95, "unit": "g"}, {"measurement": "Tumor size", "setting": "Transplanted H460 tumor; 5 mg/kg, Before Injection", "value": 196, "unit": "mm^3"}, {"measurement": "more potent than either of the single-ligand drug conjugates LDC1 and LDC13A", "setting": "[1]", "value": "2-10 fold"}]}
{"smiles": "CC[C@H](C)[C@@H]([C@@H](CC(=O)N1CCC[C@H]1[C@H](OC)[C@@H](C)C(=O)N[C@H](C)[C@@H](O)c1ccccc1)OC)N(C)C(=O)[C@@H](NC(=O)[C@H](C(C)C)N(C)C(=O)OCc1ccc(NC(=O)[C@H](CCCNC(N)=O)NC(=O)[C@@H](NC(=O)CCCCCN2C(=O)CC(SC[C@H](NC(=O)[C@H](CCCNC(=N)N)NC(=O)[C@H](CCCNC(=N)N)NC(=O)[C@H](CCCNC(=N)N)NC(=O)[C@H](CCCNC(=N)N)NC(=O)[C@H](CCCNC(=N)N)NC(=O)[C@H](CCCNC(=N)N)NC(=O)[C@H](CCCNC(=N)N)NC(=O)[C@H](CCCNC(=N)N)NC(=O)[C@@H](N)CCCNC(=N)N)C(=O)NCCCC[C@H](NC(=O)[C@H](Cc3ccc(O)cc3)NC(=O)[C@H](CO)NC(=O)[C@H](Cc3c[nH]c4ccccc34)NC(=O)[C@H](Cc3c[nH]cn3)NC(=O)[C@@H]3CCC(=O)N3)C(=O)N[C@@H](CC(C)C)C(=O)N[C@@H](CCCNC(=N)N)C(=O)N3CCC[C@H]3C(=O)NCC(N)=O)C2=O)C(C)C)cc1)C(C)C", "note": "(some centres unmarked) [LDC1013]", "values": [{"measurement": "tumor response (in words)", "setting": "[2]; HCC1954, 7 doses at 2.5 mg/kg and 7 doses of 5 mg/kg injected every three days", "value": "completely eliminate"}, {"measurement": "Body weight of mice", "setting": "[2]; [3]", "value": 24.46, "unit": "g"}, {"measurement": "Tumor size", "setting": "[2]; [3]", "value": 198, "unit": "mm^3"}, {"measurement": "Body weight of mice", "setting": "[2]; [4]", "value": 24.54, "unit": "g"}, {"measurement": "Tumor size", "setting": "[2]; [4]", "value": 198, "unit": "mm^3"}, {"measurement": "Body weight of mice", "setting": "[2]; [5]", "value": 23.94, "unit": "g"}, {"measurement": "Tumor size", "setting": "[2]; [5]", "value": 180, "unit": "mm^3"}, {"measurement": "Body weight of mice", "setting": "[2]; [6]", "value": 24.3, "unit": "g"}, {"measurement": "Tumor size", "setting": "[2]; [6]", "value": 113, "unit": "mm^3"}, {"measurement": "Body weight of mice", "setting": "[2]; [11]", "value": 24.98, "unit": "g"}, {"measurement": "Tumor size", "setting": "[2]; [11]", "value": 64, "unit": "mm^3"}, {"measurement": "Body weight of mice", "setting": "[2]; [12]", "value": 24.73, "unit": "g"}, {"measurement": "Tumor size", "setting": "[2]; [12]", "value": 22, "unit": "mm^3"}, {"measurement": "Body weight of mice", "setting": "[2]; [13]", "value": 24.43, "unit": "g"}, {"measurement": "Tumor size", "setting": "[2]; [13]", "value": 0, "unit": "mm^3"}, {"measurement": "Body weight of mice", "setting": "[2]; 2.5 mg/kg, Before Injection", "value": 24.14, "unit": "g"}, {"measurement": "Tumor size", "setting": "[2]; 2.5 mg/kg, Before Injection", "value": 180, "unit": "mm^3"}, {"measurement": "Body weight of mice", "setting": "[2]; [7]", "value": 20.7, "unit": "g"}, {"measurement": "Tumor size", "setting": "[2]; [7]", "value": 405, "unit": "mm^3"}, {"measurement": "Body weight of mice", "setting": "[2]; [8]", "value": 20.43, "unit": "g"}, {"measurement": "Tumor size", "setting": "[2]; [8]", "value": 405, "unit": "mm^3"}, {"measurement": "Body weight of mice", "setting": "[2]; [9]", "value": 21.31, "unit": "g"}, {"measurement": "Tumor size", "setting": "[2]; [9]", "value": 288, "unit": "mm^3"}, {"measurement": "Body weight of mice", "setting": "[2]; [10]", "value": 21.15, "unit": "g"}, {"measurement": "Tumor size", "setting": "[2]; [10]", "value": 88, "unit": "mm^3"}, {"measurement": "Body weight of mice", "setting": "[2]; [14]", "value": 21.21, "unit": "g"}, {"measurement": "Tumor size", "setting": "[2]; [14]", "value": 40, "unit": "mm^3"}, {"measurement": "Body weight of mice", "setting": "[2]; [15]", "value": 20.49, "unit": "g"}, {"measurement": "Tumor size", "setting": "[2]; [15]", "value": 0, "unit": "mm^3"}, {"measurement": "Body weight of mice", "setting": "[2]; 5 mg/kg, 6 days after Injection 7", "value": 24.49, "unit": "g"}, {"measurement": "Body weight of mice", "setting": "[2]; 5 mg/kg, Before Injection", "value": 21.92, "unit": "g"}, {"measurement": "Tumor size", "setting": "[2]; 5 mg/kg, Before Injection", "value": 320, "unit": "mm^3"}, {"measurement": "less toxic for A375 than for H460 and KB, respectively", "setting": "melanoma cell line A375", "value": "10-100 fold"}]}
